Values after ≈ are worked out from the molar mass of the structure shown. Active and inactive are the calls of the source. No cut-off for these calls is given here.
How the values were obtained:
[1] = Antioxidant activity assessed as DPPH radical scavenging activity at 10 ug/ml measured after 30 mins by UV-vis spectrophotometry relative to control; type: functional; conditions: dose 10.0 µg/ml
[2] = Antioxidant activity assessed as DPPH radical scavenging activity measured after 30 mins by UV-vis spectrophotometry; type: functional
SW-620 [3] = experiment: Cytotoxicity against human SW620 cells assessed as reduction in cell viability measured after 24 hrs by MTT assay; type: functional, cell-based
HT-29 [4] = experiment: Cytotoxicity against human HT-29 cells assessed as reduction in cell viability measured after 24 hrs by MTT assay; type: functional, cell-based
[5] = Cytotoxicity against splenocytes (unknown origin) assessed as reduction in cell viability at 1.25 to 20 uM measured after 24 hrs by MTT assay; type: toxicity, cell-based; conditions: splenocyte, dose 1.25-20 µM
SW-620 [6] = experiment: Cytotoxicity against human SW620 cells assessed as cell viability at 20 uM measured after 24 hrs by MTT assay relative to control; type: functional; conditions: read-out: Activity
HT-29 [7] = experiment: Cytotoxicity against human HT-29 cells assessed as cell viability at 20 uM measured after 24 hrs by MTT assay relative to control; type: functional; conditions: read-out: Activity
[8] = Antioxidant activity assessed as DPPH radical scavenging activity up to 10 ug/ml measured after 30 mins by UV-vis spectrophotometry; type: functional; conditions: dose <= 10.0 µg/ml

## CC(C)CCC[C@@H](C)[C@H]1CC[C@H]2[C@@H]3[C@@H](N(C)C)C([N+](=O)[O-])=C4C=CCC[C@]4(C)[C@H]3CC[C@]12C
[1]
  Activity: 80.6%
[2]
  IC50: 3.08 mg/L (≈ 6.74 µM)

## CC(=O)O[C@@H]1C=C2C([N+](=O)[O-])=C[C@H]3[C@@H]4CC[C@H]([C@H](C)CCCC(C)C)[C@@]4(C)CC[C@@H]3[C@@]2(C)CC1
SW-620 [3]
  Activity: Dose-dependent-effect
SW-620 [3]; SW-620, 24 h
  IC50: 10 µM
HT-29 [4]
  Activity: Dose-dependent-effect
HT-29 [4]; HT-29, 24 h
  IC50: 11.5 µM
[1]
  Activity: 86.2%
[5]
  Activity: Non-toxic
[2]
  IC50: 2.78 mg/L (≈ 5.89 µM)
SW-620 [6]
  viability at 20 µM: 15.2%
HT-29 [7]
  viability at 20 µM: 10.8%

## CN[C@H]1C([N+](=O)[O-])=C2C=CCC[C@]2(C)[C@H]2CC[C@]3(C)[C@@H]([C@H](C)CCCC(C)C)CC[C@H]3[C@H]12
[1]
  Activity: 67.9%

## CN[C@H]1C([N+](=O)[O-])=C2C=C(Cl)CC[C@]2(C)[C@H]2CC[C@]3(C)[C@@H]([C@H](C)CCCC(C)C)CC[C@H]3[C@H]12
[1]
  Activity: 66.5%

## CN[C@H]1C([N+](=O)[O-])=C2C[C@@H](O)CC[C@]2(C)[C@H]2CC[C@]3(C)[C@@H]([C@H](C)CCCC(C)C)CC[C@H]3[C@H]12
[1]
  Activity: 51.2%

## O=C1O[C@H]([C@@H](O)CO)C(O)=C1O
[8]
  Activity: Active

## CCN(CC)[C@H]1C([N+](=O)[O-])=C2C=CCC[C@]2(C)[C@H]2CC[C@]3(C)[C@@H]([C@H](C)CCCC(C)C)CC[C@H]3[C@H]12
[1]
  Activity: 64.8%

Source: ChEMBL document CHEMBL6134797, “Exploring 7β-amino-6-nitrocholestens as COVID-19 antivirals: in silico, synthesis, evaluation, and integration of artificial intelligence (AI) in drug design: assessing the cytotoxicity and antioxidant activity of 3β-acetoxynitrocholestane” (RSC Med Chem, 2024)
